Test results reported in article PMC10087458 (Chemical Biology & Drug Design, 2022).
In brackets after ≈: the same amount, converted by molar mass. Entries after “also recorded” stand apart in the source; their conditions may differ. Where two headings read alike, the source gives them in different places.

How the values were obtained:
[1] = tested on: Mycobacterium tuberculosis in a persistent state; design: method as in Barrow et al., [2003]; details: ref Barrow et al., [2003]; cited from earlier work
[2] = tested on: Mycobacterium bovis BCG (ATCC35734); experiment: microbe, parasite or virus in culture; type: cell-based; details: Mycobacterium tuberculosis variant bovis BCG, read-out: MIC90 M. bovis BCG, HT-SPOTi; lowest concentration inhibiting 90% of the bacteria
[3] = tested on: adenosine receptors in RAW264.7 cells; experiment: cAMP accumulation in RAW264.7 macrophages (cAMP ELISA); type: cell-based, murine; details: for increase in cAMP compared with forskolin: 1 μM, 10 min incubation, PDE inhibitor pre-treatment, positive control forskolin 1 μM
[4] = tested on: murine macrophages RAW 264.7; experiment: Resazurin cytotoxicity assay on RAW 264.7 macrophages; type: cell-based; details: Mus musculus
[5] = tested on: Mycobacterium aurum (ATCC 23366); experiment: HT-SPOTi anti-mycobacterial assay, M. aurum; type: cell-based; details: Mycolicibacterium aurum
[6] = Equilibrium solubility, modified shake-flask method with HPLC quantification; type: physicochemical; details: shake-flask 24 h, HPLC 230 nm
Experimental: The equilibrium solubility of ADN‐PEG‐conjugates was determined using a modified version of the shake‐flask method (Plöger et al., [2018]). An excess of the ADN‐PEG‐conjugate was added to either phosphate buffer solution (PBS buffer) or deuterium‐depleted water (DDW) at a pH value of 6.8. The resulting suspension was shaken at 37°C until a (thermodynamic) equilibrium was reached between saturated solution and undissolved solid. Solubility quantification of the samples was achieved using high‐pressure liquid chromatography (HPLC) analysis.
An excess amount of the PEG-ADN conjugates was added into a 20 mL glass vial containing either phosphate buffer solution or DDW. The samples were placed into a shaking water bath at 150 rpm at 37ᵒC for 24h. The supernatant was withdrawn from the suspension using a micro centaur MSB010.CX2.5 centrifuge (MSE Ltd., London, UK) at 1.3 × 10,000 rpm for 1 min.

[7] = tested on: Mycobacterium aurum (ATCC 23366); design: method as in Ferguson et al., [2020]; details: ref Ferguson et al., [2020]; cited from earlier work
[8] = tested on: Mycobacterium bovis BCG (ATCC35734); details: ref Ferguson et al., [2020]; cited from earlier work
[9] = RAW264.7, 50% inhibition of cell proliferation, resazurin micro dilution method, RAW 264.7 murine macrophages, read-out: GIC50 RAW 264.7
[10] = ATCC23366, HT-SPOTi, lowest concentration inhibiting 90% of the bacteria, read-out: MIC90 M. aurum
[11] = aqueous buffer, thermodynamic from solid, phosphate buffer solution pH 6.8, 37°C, read-out: Solubility (mean ± SD) PBS
[12] = pH 7, thermodynamic from solid, deuterium-depleted water (DDW), 37°C, read-out: Solubility (mean ± SD) DDW

Cc1nc(N)c2ncn([C@@H]3O[C@H](CO)[C@@H](O)[C@H]3O)c2n1 [2‐methyl adenosine]
growth of Mycobacterium tuberculosis in a persistent state (in words) [1]: inhibited the growth

CS(=O)(=O)OCCOCCOCCOCCOCC#Cc1nc(N)c2ncn([C@@H]3O[C@H](CO)[C@@H](O)[C@H]3O)c2n1 [10b]
MIC90 [2]: 250 µg/mL (≈ 434 µM)
cAMP accumulation in RAW264.7 cells (in words) [3]: significant increase; also recorded: considerable increase
increase in cAMP compared with forskolin [3]: 42%
IC50 [4, 9]: 250 µg/mL (≈ 434 µM)
MIC90 [5, 10]: 250 µg/mL (≈ 434 µM)
solubility at 24 h [6, 11]: 1220 ± 260 µg/mL (≈ 2120 µM)
solubility at 24 h [6, 12]: 1330 ± 320 µg/mL (≈ 2310 µM)

CS(=O)(=O)OCCOCCOCCOCCOCCOCC#Cc1nc(N)c2ncn([C@@H]3O[C@H](CO)[C@@H](O)[C@H]3O)c2n1 [10c]
MIC90 [2]: 250 µg/mL (≈ 403 µM)
IC50 [4, 9]: 250 µg/mL (≈ 403 µM)
MIC90 [5, 10]: 250 µg/mL (≈ 403 µM)

CC1(C)O[C@@H]2[C@H](O1)[C@@H](CO)O[C@H]2n1cnc2c(N)nc(C#CCOCCOCCOCCOCCOS(C)(=O)=O)nc21 [11b]
MIC90 [2]: 500 µg/mL (≈ 812 µM)
cAMP accumulation in RAW264.7 cells (in words) [3]: significant increase; also recorded: considerable increase
increase in cAMP compared with forskolin [3]: 46%
IC50 [4, 9]: 62.5 µg/mL (≈ 102 µM)
MIC90 [5, 10]: 500 µg/mL (≈ 812 µM)
solubility at 24 h [6, 11]: 1180 ± 190 µg/mL (≈ 1920 µM)
solubility at 24 h [6, 12]: 1160 ± 640 µg/mL (≈ 1880 µM)

CC1(C)O[C@@H]2[C@H](O1)[C@@H](CO)O[C@H]2n1cnc2c(N)nc(C#CCOCCOCCOCCOCCOCCOS(C)(=O)=O)nc21 [11c]
MIC90 [2]: 250 µg/mL (≈ 379 µM)
IC50 [4, 9]: 62.5 µg/mL (≈ 94.7 µM)
MIC90 [5, 10]: 125 µg/mL (≈ 189 µM)

CC1(C)O[C@@H]2[C@H](O1)[C@@H](COS(N)(=O)=O)O[C@H]2n1cnc2c(N)nc(C#CCOCCOCCOCCOCCOCCOS(C)(=O)=O)nc21 [12c]
MIC90 [2]: 500 µg/mL (≈ 677 µM)
IC50 [4, 9]: 31.2 µg/mL (≈ 42.2 µM)
MIC90 [5, 10]: 62.5 µg/mL (≈ 84.6 µM)

Nc1ncnc2c1ncn2[C@@H]1O[C@H](CO)[C@@H](O)[C@H]1O [Adenosine, adenosine, reference compound]
increase in cAMP compared with forskolin [3]: 48%

NNC(=O)c1ccncc1 [Isoniazid, isoniazid, reference compound]
MIC90 [2]: 0.49 µg/mL (≈ 3.57 µM)
IC50 [4, 9]: 500 µg/mL (≈ 3650 µM)
MIC90 [5, 10]: 7.81 µg/mL (≈ 56.9 µM)

Nc1nc(I)nc2c1ncn2[C@@H]1O[C@H](CO)[C@@H](O)[C@H]1O [compound 9, 2‐iodoadenosine, reference compound]
MIC90 [2]: 15.6 µg/mL (≈ 39.7 µM)
bactericidal activity against M. aurum (in words) [7]: not
IC50 ([4]; RAW264.7, read-out: GIC50 RAW 264.7): 250 µg/mL (≈ 636 µM)
MIC90 ([5]; ATCC23366, read-out: MIC90 M. aurum): 125 µg/mL (≈ 318 µM)
bactericidal activity against M. bovis (in words) [8]: exhibited bactericidal activity
